Where “and” joins values, the source holds several entries; their conditions need not be identical. Equal values may be shown once. Read-outs that look alike come from different tables or passages of the source. Positions of bridges follow the written chain, without caps; N, C: chain ends.
Columns and labels:
[1] = biological target: SARS-CoV-2 Spike protein (Severe acute respiratory syndrome coronavirus 2, UniProt P0DTC2); assay: Ternary binding of SARS-CoV-2 Spike protein (293T cells expressing Spike-GFP, IgG-AF647, flow cytometry); type: cell-based; settings: 293T cells expressing Spike-GFP; IgG-AF647 10 μg/ml; repeat values/batches listed separately; read-out: SARS-CoV-2 Ternary binding EC50
[2] = tested on: live SARS-CoV-2 Virus (wildtype); assay: Neutralization of live SARS-CoV-2 virus, wildtype (Vero E6 cells, nucleoprotein ELISA); type: cell-based
[3] = biological target: T1, SARS-CoV-2 Spike A (wild-type) (Severe acute respiratory syndrome coronavirus 2, UniProt P0DTC2); assay: MSD ACE2 competition assay (inhibition of Spike binding with ACE2, ECL), A (wild-type); settings: IC50 Wild Type, Wild Type Spike
T1 construct: purchased Meso Scale Diagnostics, LLC V-PLEX SARS-CoV-2 Panel 13 (ACE2) Kit / Panel 23 (ACE2) Kit

[4] = tested on: Spike RBD coated magnetic beads / RAW 264.7 macrophages; assay: Antibody-dependent cellular phagocytosis (ADCP), RAW 264.7 macrophages and Spike RBD coated magnetic beads, flow cytometry; type: cell-based; settings: 37° C., 2 hours, read-out: SARS-COV-2 ADCP EC50
Procedure: The ability of the compounds to mediate antibody-dependent cellular phagocytosis (ADCP) was assessed using RAW 264.7 macrophages and Spike RBD coated magnetic beads (https://www.acrobiosystems.com/P3194-SARS-CoV-2-Spike-RBD-coupled-Magnetic-Beads.html). Spike RBD coated magnetic beads (3 ul per well) were added to each well of a round bottom 96-well plates. RAW264.7 cells (50,000 cells per well) were added to the beads. Next, the compounds were administered to predetermined final concentrations. The cell-bead mixtures were incubated at 37° C. for 2 hours. The mixtures were then analyzed by flow cytometry.

[5] = biological target: native human IgG1; assay: Ligand binding to native human IgG1 by Bio-Layer Interferometry (BLI); settings: read-out: Octet Native IgG1 Binding KD
Procedure: The binding of exemplary compounds to native human IgG1 was measured by Bio-Layer Interferometry (BLI) using the ForteBio Octet® 96e platform (Fremont, CA). The binding assay was performed using the Protein L (ProL) Dip and Read Biosensors (ForteBio 18-5085) in a 96-well black flat bottom assay plate (Greiner Bio-One 655209; Monroe, NC) with the following steps: (1) 60 seconds of baseline; (2) 600 seconds of loading with 50 μg/ml of Native Human IgG1 (Abcam ab184886; Cambridge, UK); (3) 60 seconds of baseline; (4) 180 seconds of association with a dilution series of ligand in Assay Buffer (PBS (Gibco 10010; Grand Island, New York), 0.1% (w/v) BSA (American Bio AB01088-00100; Canton, MA), 0.05% (v/v) Tween 20 (Fisher BioReagents™ BP337-500; Pittsburgh, PA), pH 7.4), consisting of seven concentrations. The eighth tip in the column was run in Assay Buffer to serve as a reference sensor, the signal of which was subtracted from the sample sensors. (5) 180 seconds of dissociation in Assay Buffer.
The data was analyzed with the Octet® Data Analysis HT software. The processed data was globally fit to a 1:1 binding model for determination of the equilibrium dissociation constant (KD) and is shown in Table 7.

[6] = live virus neutralization, isolate Seattle WA (IITRI), Vero E6

Molecule | EC50 [1] | EC50 [2, 6] [nM] | IC50 [3] | EC50 [4] | Kd [5] [nM] | EC50 ([2]; read-out: Seattle WA (IITRI) EC50) [nM]
Ac-DKEWILQKIYEIMRLLDELGHAEASMRVSDLIYEFMKKGDERLLEEAERLLEEVERDCAWHLGELVWCT (disulfide 58-68) [Compound 110] | 0.14 nM and 0.13 nM | 0.0058 | < 10 nM | 1.5 nM and 1.2 nM | – | –
Ac-DCAWHLGELVWCTDKEWILQKIYEIMRLLDELGHAEASMRVSDLIYEFMKKGDERLLEEAERLLEEVER (disulfide 2-12) [Compound 120] | 0.33 nM and 0.31 nM | 0.001 | < 10 nM and 1.57 nM | 1.9 nM and 1.8 nM | – | –
Ac-DKEWILQKIYEIMRLLDELGHAEASMRVSDLIYEFMKKGPASPASPASPASDCAWHLGELVWCT (disulfide 53-63) [Compound 167] | 0.24 nM | – | 10.8 nM | 0.11 nM | < 1 | –
CC[C@H](C)[C@H](NC(=O)[C@H](CC(C)C)NC(=O)[C@H](CC(=O)O)NC(=O)[C@H](CO)NC(=O)[C@@H](NC(=O)[C@H](CCCNC(=N)N)NC(=O)[C@H](CCSC)NC(=O)[C@H](CO)NC(=O)[C@H](C)NC(=O)[C@H](CCC(=O)O)NC(=O)[C@H](C)NC(=O)[C@H](Cc1c[nH]cn1)NC(=O)CNC(=O)[C@H](CC(C)C)NC(=O)[C@H](CCC(=O)O)NC(=O)[C@H](CC(=O)O)NC(=O)[C@H](CC(C)C)NC(=O)[C@H](CC(C)C)NC(=O)[C@H](CCCNC(=N)N)NC(=O)[C@H](CCSC)NC(=O)[C@@H](NC(=O)[C@H](CCC(=O)O)NC(=O)[C@H](Cc1ccc(O)cc1)NC(=O)[C@@H](NC(=O)[C@H](CCCCN)NC(=O)[C@H](CCC(N)=O)NC(=O)[C@H](CC(C)C)NC(=O)[C@@H](NC(=O)[C@H](Cc1c[nH]c2ccccc12)NC(=O)[C@H](CCC(=O)O)NC(=O)[C@H](CCCCN)NC(=O)[C@H](CC(=O)O)NC(=O)CCOCCOCCOCCOCCOCCOCCOCCOCCNC(=O)CCOCCOCCOCCOCCOCCOCCOCCOCCC(=O)N[C@@H](CC(=O)O)C(=O)N[C@H]1CSSC[C@@H](C(=O)N[C@H](C(N)=O)[C@@H](C)O)NC(=O)[C@H](Cc2c[nH]c3ccccc23)NC(=O)[C@H](C(C)C)NC(=O)[C@H](CC(C)C)NC(=O)[C@H](CCC(=O)O)NC(=O)CNC(=O)[C@H](CC(C)C)NC(=O)[C@H](Cc2c[nH]cn2)NC(=O)[C@H](Cc2c[nH]c3ccccc23)NC(=O)[C@H](C)NC1=O)[C@@H](C)CC)[C@@H](C)CC)[C@@H](C)CC)C(C)C)C(=O)N[C@@H](Cc1ccc(O)cc1)C(=O)N[C@@H](CCC(=O)O)C(=O)N[C@@H](Cc1ccccc1)C(=O)N[C@@H](CCSC)C(=O)N[C@@H](CCCCN)C(=O)N[C@@H](CCCCN)C(=O)NCC(=O)N[C@@H](CC(=O)O)C(=O)N[C@@H](CCC(=O)O)C(=O)N[C@@H](CCCNC(=N)N)C(=O)N[C@@H](CC(C)C)C(=O)N[C@@H](CC(C)C)C(=O)N[C@@H](CCC(=O)O)C(=O)N[C@@H](CCC(=O)O)C(=O)N[C@@H](C)C(=O)N[C@@H](CCC(=O)O)C(=O)N[C@@H](CCCNC(=N)N)C(=O)N[C@@H](CC(C)C)C(=O)N[C@@H](CC(C)C)C(=O)N[C@@H](CCC(=O)O)C(=O)N[C@@H](CCC(=O)O)C(=O)N[C@H](C(=O)N[C@@H](CCC(=O)O)C(=O)N[C@@H](CCCNC(=N)N)C(N)=O)C(C)C [Compound 128] | – | – | – | 0.045 nM and 0.052 nM | – | 0.042

Reference: patent publication US20260306644A1, “ANTIBODY RECRUITING MOLECULES FOR THE TREATMENT OF CORONAVIRUS DISEASE-19” (priority 2023, published 2026)
